# In US20250154201A1, “PEPTIDE BINDING TO MESOTHELIN, AND USE THEREOF” (KYUNGPOOK NATIONAL UNIVERSITY INDUSTRY-ACADEMIC COOPERATION …, priority 2022, published 2025):
# What was measured:
# [1] = test system: AsPC-1 tumor; test: tumor homing of peptides in mice; assay type: in vivo, nude mice; settings: TAMRA-labeled, intravenous, 6 hours circulation
# Experimental: Pancreatic cancer cell line AsPC-1 cells (1×10^7 cells) were implanted under the skin of nude mice, left until the tumor size reaches about 100 mm^3, and then intravenously injected with 100 μl of 1 mM peptides labeled with a TAMRA fluorescence reagent, followed by circulation for 6 hours. Tumors and organs (liver, lung, and kidney) were separated and treated with paraformaldehyde for fixation and preparation of cryosections. The prepared cryosections were observed under a fluorescence microscope.
# Pancreatic cancer cell line AsPC-1 cells (1×10^7 cells) were implanted under
# the skin of nude mice, left until the tumor size reached about 100 mm^3, and then intravenously injected with MSLN-pep labeled with the TAMRA fluorescence reagent and control peptide (Ctrl-pep), followed by circulation for 6 hours. The tumor and control organs were separated, and cryosections were prepared, followed by observation under a fluorescence microscope.
# [2] = test system: PANC-1 and AsPC-1 cell lines; test: analysis of invasion (Matrigel-coated 24-transwell); assay type: cell-based, human; settings: 24 hours
# Experimental: PANC-1 and AsPC-1 cell lines were cultured using DMEM and RPMI-1640 media with 10% FBS added in 100 mm dish each at a concentration of 2×10^6 cells per well. After 24 hours, all media in 100 mm dishes were removed and replaced with DMEM and RPMI-1640 media without addition of 10% FBS to inhibit migratability of cell lines so as to be in a starvation state. After 24 hours, 300 μg/mL of Matrigel was coated on the upper chamber of 24-Transwell. Afterwards, PANC-1 and AsPC-1 cell lines were cultured in the upper chamber at a concentration of 2×10^4 cells in a 100 mm dish, 10% FBS was added to the lower chamber for the experimental group, and 0% FBS was added to the lower chamber for the control group to identify migratability. 3% ACN, 200 μM control peptide (Ctrl-pep), MSLN-pep 25. For 50, 100, and 200 μM groups, each cell line was cultured together in the upper chamber of the 24-Transwell, and 10% FBS was treated in the lower chamber. Each group was cultured at 37° C. for 24 hours, and then the cells were photographed (original magnification, ×100) for each concentration of peptides. Cells were stained with crystal violet (0.1%), and Image J, a computer program, was used for quantitative evaluation.
# After pancreatic cancer cell lines PANC-1 and AsPC-1 were cultured in 24-transwells, all cells were starved for 24 hours to inhibit cell growth, and then treatment was performed in divided groups of 10% FBS, 0% FBS, 3% ACN+10% FBS, 200 μM NSSSVDK+10% FBS, 25 μM MSLN-pep+10% FBS, 50 μM MSLN-pep+10% FBS, 100 μM MSLN-pep+10% FBS, and 200 μM MSLN-pep+10% FBS.
# [3] = test system: AsPC-1 cells expressing mesothelin; test: binding to AsPC-1 cells after mesothelin siRNA (confocal immunofluorescence and flow cytometry); assay type: cell-based, human; settings: for specific binding (flow cytometry): 25 μM MSLN-pep
# Experimental: Mesothelin-specific siRNA (M-siRNA) and negative control siRNA (C-siRNA) were purchased from Bioneer and transfected with Lipofectamine RNAiMAX transfection reagent (Invitrogen) into AsPC-1, a pancreatic cancer cell line. After 24 hours of transfection, the media were replaced with a medium containing serum, followed by culture for an additional 24 hours.
# After AsPC-1 cells were cultured for 24 hours, for suppression of mesothelin expression, transfection followed with C-siRNA, a non-specific siRNA, as well as M-siRNA, a mesothelin-specific siRNA. To detect the silencing of the mesothelin gene, the group was divided into one without treatment of siRNA, one with treatment of 100 nM C-siRNA, and one with treatment of 100 nM and 200 nM M-siRNA. Mesothelin antibody and MSLN-pep were then treated by 10 μM and 25 μM, respectively. Further, the results were identified by means of confocal microscopy via immunofluorescence analysis (FIG. 6A). […] Flow cytometry was performed to determine the expression level of mesothelin when siRNA was not treated to AsPC-1 cells and the expression level of mesothelin after C-siRNA and M-siRNA were treated, of which values were expressed in % binding with the mesothelin antibody and the mean fluorescence intensity (MFI). […] As a result of performing flow cytometry to determine the difference between the binding of 25 μM MSLN-pep when siRNA was not treated to AsPC-1 cells expressing mesothelin and the binding of 25 μM MSLN-pep after treating with C-siRNA and M-siRNA, when treated with no siRNA or treated with 100 nM C-siRNA, the specific binding of 25 μM MSLN-pep was approximately 78%, and when treated with 100 nM and 200 nM M-siRNA, it was approximately 15%. This series of results reveal the degree of mesothelin expression and the reduction of mesothelin expression when M-siRNA is treated. […] In brief, it was determined that MSLN-pep specifically binds to cells expressing mesothelin.
# [4] = test system: pancreatic cancer cell lines PANC-1 and AsPC-1; test: internalization of FITC-labeled peptides (confocal microscopy); assay type: cell-based, human; settings: 25 μM and 50 μM MSLN-pep, 50 uM NSSSVDK; 1 and 2 hours
# Experimental: To observe the intracellular distribution of the internalized FITC-labeled peptide MSLN-pep, pancreatic cancer cell lines AsPC-1 and PANC-1 cells (2.5×10^5 cell counts) were dispensed on a 4-well chamber slide. After complete adhesion, the cell culture medium was replaced with a fresh medium containing FITC-labeled peptides (25 μM, 50 μM), […], and the cells were washed with PBS 3 times for 3˜5 minutes, followed by fixation (4% paraformaldehyde; PFA) for 5 minutes. Thereafter, washing with PBS was performed. After staining the nucleus with DAPI and mounting on a glass slide with a fading reagent, internalization of FITC-labeled MSLN-pep was observed under confocal microscopy.
structure (smiles),measurement,setting,value
CC[C@H](C)[C@@H]1NC(=O)[C@H]([C@@H](C)O)NC(=O)[C@@H](N)CSSC[C@@H](C(=O)O)NC(=O)[C@H]([C@@H](C)O)NC(=O)[C@H](CC(C)C)NC(=O)[C@H](CO)NC(=O)[C@H](Cc2c[nH]c3ccccc23)NC(=O)[C@H](CC(C)C)NC1=O [MSLN-pep],targeting to control organs (fluorescence microscopy of cryosections),"[1]; liver, lungs, kidneys",barely observed
same,targeting to tumor tissue (fluorescence microscopy of cryosections),[1]; tumor tissue,observed at a higher level compared to the control
same,invasiveness compared to treatment of 10% FBS,[2]; 25 μM + 10% FBS,no difference in the migratability and invasiveness
same,invasiveness,"[2]; 50, 100 and 200 μM + 10% FBS",suppressed with increasing concentrations of MSLN-pep
same,specific binding (flow cytometry),[3]; 100 nM and 200 nM M-siRNA,approximately 15%
same,specific binding (flow cytometry),[3]; no siRNA or 100 nM C-siRNA,approximately 78%
same,specific binding to mesothelin (confocal immunofluorescence),[3]; 25 μM compared to 10 μM,higher specific binding to mesothelin
same,specific binding (confocal immunofluorescence),[3]; M-siRNA 100 nM and 200 nM,decreased with the decrease of mesothelin expression
same,binding and internalization into cells,[4],internalization into cells occurs in proportion to the increase in the concentration
